Assay results: patent publication US8901138B2, “Sulfoximine substituted quinazolines for pharmaceutical compositions” (Boehringer Ingelheim International GmbH, priority 2012, dated 2014)

What was measured:
MNK2a = target: T1, MNK2a (Homo sapiens, UniProt Q9HBH9); assay: MNK2a in vitro kinase assay (assay 1), ADP-Glo; assay type: biochemical; settings: preactivated GST-MNK2a, 20 μM ATP, read-out: MNK2 IC50
T1 construct: made in house
Method in brief: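 Preactivated GST-MNK2a (10 nM) with eIF4E peptide (25 μM) and ATP (20 μM) in HEPES/DTT/MgCl2 buffer, 90 min at room temperature, final DMSO <3%. ADP formed read by ADP-Glo luminescence and normalised to vehicle and 20 μM reference-inhibitor controls; IC50 from dose-response curves.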

MNK1a = MNK1a (Homo sapiens, UniProt Q9BUB5); assay: MNK1 in vitro kinase assay (assay 2), Z'-LYTE; assay type: biochemical; settings: for inhibition at 1 µM: compound concentration of 1 μM; for IC50: pre-activated GST-MNK1a
Source text: B. MNK1 In Vitro Kinase Assay (Assay 2)
MNK1 Data can be obtained from the MNK1 Z′-LYTE® assay. The MNK1 Z′-LYTE® screening protocol and assay conditions are also described on www.invitrogen.com.
The assay is described as follows:
The Z′-LYTE® biochemical assay employs a fluorescence-based, coupled-enzyme format and is based on the differential sensitivity of phosphorylated and non-phosphorylated peptides to proteolytic cleavage. The peptide substrate is labeled with two fluorophores—one at each end—that make up a FRET pair.
In the primary reaction, the kinase transfers the gamma-phosphate of ATP to a single tyrosine, serine or threonine residue in a synthetic FRET-peptide. In the secondary reaction, a site-specific protease recognizes and cleaves non-phosphorylated FRET-peptides. Phosphorylation of FRET-peptides suppresses cleavage by the Development Reagent. Cleavage disrupts FRET between the donor (i.e., coumarin) and acceptor (i.e., fluorescein) fluorophores on the FRET-peptide, whereas uncleaved, phosphorylated FRET-peptides maintain FRET. A ratiometric method, which calculates the ratio (the Emission Ratio) of donor emission to acceptor emission after excitation of the donor fluorophore at 400 nm, is used to quantitate reaction progress, as shown in the equation below. Emission Ratio=Coumarin Emission(445 nm)/Fluorescein Emission(520 nm)
ASSAY SETUP: The inhibition of kinase activity of MNK1a was assessed using pre-activated GST-MNK1a. The 2×MKNK1 (MNK1) mixture is prepared in 50 mM HEPES pH 7.5, 0.01% BRIJ-35, 10 mM MgCl2, 4 mM MnCl2, 1 mM EGTA, 2 mM DTT. The final 10 μL Kinase Reaction consists of 13.5-54 ng MKNK1 (MNK1) and 2 μM Ser/Thr 07 in 50 mM HEPES pH 7.5, 0.01% BRIJ-35, 10 mM MgCl2, 2 mM MnCl2, 1 mM EGTA, 1 mM DTT. After the 1 hour Kinase Reaction incubation, 5 μL of a 1:32768 dilution of Development Reagent A is added.
The Test Compounds are screened in 1% DMSO (final) in the well.
All Peptide/Kinase Mixtures are diluted to a 2× working concentration in the MNK1 Kinase Buffer.
All ATP Solutions are diluted to a 4× working concentration in Kinase Buffer (50 mM HEPES pH 7.5, 0.01% BRIJ-35, 10 mM MgCl2, 1 mM EGTA).
Development Reagent Solution:
The Development Reagent is diluted in Development Buffer
Bar-coded Corning, low volume NBS, 384-well plate (Corning Cat. #3676)
1. 2.5 μL-4× Test Compound
2. 5 μL-2× Peptide/Kinase Mixture
5. 60-minute Kinase Reaction incubation at room temperature
6. 5 μL-Development Reagent Solution
8. 60-minute Development Reaction incubation at room temperature
9. Read on fluorescence plate reader and analyze the data
The following equations are used for each set of data points: […]
Correction for Background Fluorescence: FSample−FITCFl Ctl
Emission Ratio (using values corrected for background fluorescence):Coumarin
Emission (445 nm)/Fluorescein Emission (520 nm)
% Phosphorylation (% Phos): 1−((Emission Ratio×F100%)−C100%)/((C0%−C100%)+[Emission Ratio×(F100%−F0%)])*100 % Inhibition: 1−(% PhosSample/% Phos0% Inhibition Ctl)*100 FI=Fluorescence Intensity C100%=Average Coumarin emission signal of the 100% Phos. Control C0%=Average Coumarin emission signal of the 0% Phos. Control F100%=Average Fluorescein emission signal of the 100% Phos. Control F0%=Average Fluorescein emission signal of the 0% Phos. Control Graphing Software
SelectScreen® Kinase Profiling Service uses XLfit from IDBS. The dose response curve is curve fit to model number 205 (sigmoidal dose-response model).

T1 sequence (Q9HBH9 whole entry): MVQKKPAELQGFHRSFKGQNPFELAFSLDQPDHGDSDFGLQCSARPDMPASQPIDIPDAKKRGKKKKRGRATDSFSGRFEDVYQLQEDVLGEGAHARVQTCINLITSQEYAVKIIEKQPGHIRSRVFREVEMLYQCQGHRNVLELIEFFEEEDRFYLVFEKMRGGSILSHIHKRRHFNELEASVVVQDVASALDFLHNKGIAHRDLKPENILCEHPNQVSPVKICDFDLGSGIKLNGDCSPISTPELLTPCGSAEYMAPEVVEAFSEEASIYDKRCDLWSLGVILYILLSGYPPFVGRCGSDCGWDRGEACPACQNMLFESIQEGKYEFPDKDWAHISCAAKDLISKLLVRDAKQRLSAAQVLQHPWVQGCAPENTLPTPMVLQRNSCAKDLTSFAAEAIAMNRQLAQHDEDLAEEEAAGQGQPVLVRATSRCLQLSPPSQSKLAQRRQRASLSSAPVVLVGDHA
Chain of MNK1a (Q9BUB5 1-424 isoform Q9BUB5-2): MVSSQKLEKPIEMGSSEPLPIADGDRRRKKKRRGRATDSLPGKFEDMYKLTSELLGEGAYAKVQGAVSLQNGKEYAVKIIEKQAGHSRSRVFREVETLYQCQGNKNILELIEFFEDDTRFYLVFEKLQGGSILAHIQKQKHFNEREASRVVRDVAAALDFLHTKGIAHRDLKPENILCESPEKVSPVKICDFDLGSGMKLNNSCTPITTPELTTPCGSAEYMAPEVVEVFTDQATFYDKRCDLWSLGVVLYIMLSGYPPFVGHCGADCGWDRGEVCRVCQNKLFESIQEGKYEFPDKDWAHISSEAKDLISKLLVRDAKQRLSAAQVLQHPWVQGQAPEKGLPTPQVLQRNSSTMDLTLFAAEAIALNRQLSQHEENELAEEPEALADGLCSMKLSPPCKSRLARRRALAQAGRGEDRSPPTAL

| Compound | IC50 (MNK2a) [nM] | inhibition at 1 µM (MNK1a) [%] | IC50 (MNK1a) [nM] |
| --- | --- | --- | --- |
| Cc1cc(N=S(C)(=O)c2ccccn2)cc2ncnc(Nc3ccc(F)cc3O[C@@H]3CO[C@@H]4CCO[C@@H]43)c12 (stereo partly drawn) [Example 2.11] | 6 | 92 |  |
| CCS(=O)(CC)=Nc1cc(C)c2c(Nc3ccc(F)cc3O[C@H]3CC[C@H](OC)CC3)ncnc2c1 [Example 2.12] | 13 | 24 |  |
| CC(C)(C)OC(=O)N1CCC[C@@H](Oc2cc(F)ccc2Nc2ncnc3cc(N=S(C)(C)=O)cc(F)c23)C1 [Example 2.13] | 39 | 73 |  |
| CO[C@H]1CC[C@H](Oc2cc(F)ccc2Nc2ncnc3cc(N=S4(=O)CCN(C(=O)OC(C)(C)C)CC4)cc(C)c23)CC1 [Example 2.14] | 9 | 52 |  |
| CC(C)(C)OC(=O)N[C@H]1CC[C@H](Oc2ncccc2Nc2ncnc3cc(N=S(C)(C)=O)cc(F)c23)CC1 [Example 2.15] | 7 | 72 |  |
| Cc1cc(N=S(C)(C)=O)cc2ncnc(Nc3ccc(C(N)=O)cc3OC3CCOCC3)c12 [Example 2.16] | 10 | 94 |  |
| CO[C@H]1CC[C@H](Oc2cc(F)ccc2Nc2ncnc3cc(N=S4(=O)CCOCC4)cc(C)c23)CC1 [Example 2.17] | 4 | 91 |  |
| Cc1cc(N=S(C)(C)=O)cc2ncnc(Nc3cccnc3O[C@@H]3CCCN(C(=O)OC(C)(C)C)C3)c12 [Example 2.23] | 52 | 66 |  |
| Cc1cc(N=S(C)(C)=O)cc2ncnc(Nc3ccc(C(N)=O)cc3OC3CCCC3)c12 [Example 2.24] | 4 | 93 |  |
| Cc1cc(N=S(C)(C)=O)cc2ncnc(Nc3ccc(F)cc3O[C@@H]3CCCN(C(=O)OC(C)(C)C)C3)c12 [Example 2.27] | 46 | 78 |  |
| Cc1cc(N=S(C)(C)=O)cc2ncnc(Nc3ccc(F)cc3O[C@@H]3CO[C@H]4[C@@H]3OC[C@H]4OC(C)C)c12 [Example 2.28] | 4 | 98 |  |
| Cc1cc(N=S(C)(C)=O)cc2ncnc(Nc3ccc(F)cc3O[C@@H]3CO[C@H]4[C@@H]3OC[C@H]4C#N)c12 [Example 2.30] | 7 | 88 |  |
| Cc1cc(N=S(C)(C)=O)cc2ncnc(Nc3cccnc3O[C@H]3CC[C@H](O)CC3)c12 [Example 2.31] | 2 | 100 |  |
| CCS(C)(=O)=Nc1cc(C)c2c(Nc3ccc(F)cc3O[C@@H]3CO[C@H]4[C@@H]3OC[C@H]4O)ncnc2c1 (stereo partly drawn) [Example 2.33] | 3 | 100 |  |
| CO[C@@H]1CO[C@H]2[C@@H]1OC[C@H]2Oc1cc(F)ccc1Nc1ncnc2cc(N=S(C)(C)=O)cc(C)c12 [Example 2.34] | 1 |  | 17 |
| CS(C)(=O)=Nc1cc(F)c2c(Nc3ccc(F)cc3O[C@H]3CC[C@@](C)(O)CC3)ncnc2c1 [Example 2.35] | 4 | 95 |  |
| CCO[C@@H]1CO[C@H]2[C@@H]1OC[C@H]2Oc1cc(F)ccc1Nc1ncnc2cc(N=S3(=O)CCCC3)cc(C)c12 [Example 2.37] | 1 | 95 |  |

| Compound | IC50 (MNK2a) [nM] | inhibition at 1 µM (MNK1a) [%] | IC50 (MNK1a) [nM] |
| --- | --- | --- | --- |
| Cc1cc(N=S(C)(=O)c2ccccn2)cc2ncnc(Nc3ccc(F)cc3O[C@H]3CCOC3)c12 (stereo partly drawn) [Example 2.38] | 7 | 82 |  |
| Cc1cc(N=S2(=O)CCCC2)cc2ncnc(Nc3ccc(F)cc3O[C@H]3CC[C@H](O)CC3)c12 [Example 2.40] | 2 | 100 | 56 |
| COCCS(C)(=O)=Nc1cc(C)c2c(Nc3ccc(F)cc3O[C@@H]3CO[C@H]4[C@@H]3OC[C@H]4O)ncnc2c1 (stereo partly drawn) [Example 2.41] | 6 | 90 |  |
| CCS(C)(=O)=Nc1cc(C)c2c(Nc3cccnc3O[C@H]3CC[C@H](O)CC3)ncnc2c1 (stereo partly drawn) [Example 2.44] | 3 | 100 |  |
| Cc1cc(N=S(C)(C)=O)cc2ncnc(Nc3ccc(F)cc3O[C@@H]3CO[C@H]4[C@@H]3OC[C@@]4(C)O)c12 [Example 2.45] | 2 | 90 |  |
| Cc1cc(N=S(C)(C)=O)cc2ncnc(Nc3ccc(F)cc3O[C@H]3CCOC3)c12 [Example 2.47] | 2 | 97 |  |
| CO[C@H]1CC[C@H](Oc2ncccc2Nc2ncnc3cc(N=S(C)(C)=O)cc(F)c23)CC1 [Example 2.49] | 4 | 86 |  |
| Cc1cc(N=S2(=O)CCCCC2)cc2ncnc(Nc3ccc(F)cc3O[C@@H]3CO[C@H]4[C@@H]3OC[C@H]4O)c12 [Example 2.51] | 3 | 101 |  |
| CS(C)(=O)=Nc1cc(F)c2c(Nc3cccnc3O[C@@H]3CCOC3)ncnc2c1 [Example 2.53] | 13 | 94 |  |
| Cc1cc(N=S(C)(=O)CCc2ccccc2)cc2ncnc(Nc3ccc(F)cc3O[C@H]3CC[C@H](O)CC3)c12 (stereo partly drawn) [Example 2.54] | 5 | 69 |  |
| CCS(C)(=O)=Nc1cc(C)c2c(Nc3ccc(F)cc3O[C@@H]3CO[C@H]4[C@@H]3OC[C@H]4OC)ncnc2c1 (stereo partly drawn) [Example 2.55] | 2 | 99 |  |
| CO[C@H]1CC[C@H](Oc2cc(F)ccc2Nc2ncnc3cc(N=S4(=O)CCOCC4)cc(F)c23)CC1 [Example 2.56] | 11 | 76 |  |
| Cc1cc(N=S(C)(C)=O)cc2ncnc(Nc3ccsc3O[C@@H]3CCOC3)c12 [Example 2.58] | 109 | 30 |  |
| Cc1cc(N=S2(=O)CCCC2)cc2ncnc(Nc3ccc(F)cc3O[C@@H]3CCN(C(=O)OC(C)(C)C)C3)c12 [Example 2.59] | 15 | 82 |  |
| Cc1cc(N=S(C)(C)=O)cc2ncnc(Nc3ccc(F)cc3O[C@@H]3CO[C@H]4[C@@H]3OC[C@@H]4C#N)c12 [Example 2.61] | 2 | 98 |  |
| Cc1cc(N=[S@@](C)(=O)c2ccccc2)cc2ncnc(Nc3ccc(F)cc3O[C@H]3CCOC3)c12 [Example 2.64] | 3 | 87 |  |
| Cc1cc(N=S(C)(C)=O)cc2ncnc(Nc3ccc(C#N)cc3O[C@H]3CC[C@H](O)CC3)c12 [Example 2.65] | 5 | 98 |  |
